Test results from US11110082B2, “Tyrosine kinase inhibitors” (Rigel Pharmaceuticals, Inc., priority 2016, dated 2021).

Target: T1, MerTK (Homo sapiens, UniProt Q12866)
T1 construct: Seed HUVECs (10K cells/well) in EBM-2 complete media; host or cells: HUVEC (primary human umbilical vein endothelial cells)
T1 sequence (Q12866 21-999): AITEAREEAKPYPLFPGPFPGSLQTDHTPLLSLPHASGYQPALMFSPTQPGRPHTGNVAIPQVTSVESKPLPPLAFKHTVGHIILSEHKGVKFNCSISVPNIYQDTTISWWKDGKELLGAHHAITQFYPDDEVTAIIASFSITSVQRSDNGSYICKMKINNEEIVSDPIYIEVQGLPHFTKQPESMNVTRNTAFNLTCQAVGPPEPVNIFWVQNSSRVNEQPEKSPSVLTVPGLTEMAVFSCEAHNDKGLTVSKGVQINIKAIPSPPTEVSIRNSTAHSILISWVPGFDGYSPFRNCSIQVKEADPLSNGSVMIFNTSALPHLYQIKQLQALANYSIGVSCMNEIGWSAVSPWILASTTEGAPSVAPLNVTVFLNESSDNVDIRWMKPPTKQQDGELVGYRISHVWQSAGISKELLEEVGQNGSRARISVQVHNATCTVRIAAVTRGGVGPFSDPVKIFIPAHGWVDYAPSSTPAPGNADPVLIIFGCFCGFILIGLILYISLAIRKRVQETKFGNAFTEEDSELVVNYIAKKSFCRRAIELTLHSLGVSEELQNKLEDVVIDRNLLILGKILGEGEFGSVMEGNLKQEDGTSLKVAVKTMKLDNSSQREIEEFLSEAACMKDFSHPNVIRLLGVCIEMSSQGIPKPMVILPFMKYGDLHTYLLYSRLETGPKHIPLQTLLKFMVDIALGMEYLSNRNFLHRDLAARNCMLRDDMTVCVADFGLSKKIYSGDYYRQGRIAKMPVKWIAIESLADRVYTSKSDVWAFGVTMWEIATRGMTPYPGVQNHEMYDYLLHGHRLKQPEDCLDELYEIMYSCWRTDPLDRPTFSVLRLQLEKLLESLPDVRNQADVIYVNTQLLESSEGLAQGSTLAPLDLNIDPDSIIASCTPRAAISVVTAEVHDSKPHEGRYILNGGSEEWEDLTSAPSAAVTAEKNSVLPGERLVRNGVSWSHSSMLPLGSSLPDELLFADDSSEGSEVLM
Assay: PAKT HTRF-HUVEC assay (pAkt Ser473 HTRF after anti-human MerTK-XL stimulation)
Assay type: cell-based
Conditions: HUVEC cells, 1 hour compound, stimulated with anti-human MerTK-XL 1 ug/mL for 10 minutes, read-out: inhibition of MerTK
How it was run: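 HUVECs starved 3-4 h in basal medium, preincubated with compound 1 h at 37° C, then stimulated 10 min with cross-linked anti-human MerTK antibody (final 1 ug/mL). Lysates read for pAkt (Ser473) by HTRF; EC50 from curve fitting.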

Compound | EC50
CCC1(CNc2ncc3c4ccc(CN5CCOCC5)cc4c(=O)n([C@H]4CC[C@H](O)CC4)c3n2)CC1 [Compound 23] | 1180 nM
CCCCNc1ncc2c3ccc(N4CCN(C)CC4)cc3c(=O)n([C@H]3CC[C@@](C)(O)CC3)c2n1 [Compound 89, cis-3-(Butylamino)-5-(4-hydroxy-4-methylcyclohexyl)-8-(4-methylpiperazin-1-yl)pyrimido[4,5-c]isoquinolin-6(5H)-one] | 152 nM
CCCCNc1ncc2c3ccc(N4CCN(C(C)C)CC4)cc3c(=O)n(C3CCC(=O)CC3)c2n1 [Compound 70, 3-(Butylamino)-8-(4-isopropylpiperazin-1-yl)-5-(4-oxocyclohexyl)pyrimido[4,5-c]isoquinolin-6(5H)-one] | 184 nM
CCCCNc1ncc2c3ccc(CN4CCN(C)CC4)cc3c(=O)n([C@H]3CC[C@H](C#N)CC3)c2n1 [Compound 128] | 126 nM
O=c1c2cc(N3CCN(CC(F)(F)F)CC3)ccc2c2cnc(NCC3CC3)nc2n1[C@H]1CC[C@H](O)CC1 [Compound 104, trans-3-((Cyclopropylmethyl)amino)-5-(4-hydroxycyclohexyl)-8-(4-(2,2,2-trifluoroethyl)piperazin-1-yl)pyrimido[4,5-c]isoquinolin-6(5H)-one] | 289 nM
O=c1c2cc(CN3CCNCC3)ccc2c2cnc(NCC3CC3)nc2n1[C@H]1CC[C@H](O)CC1 [Compound 171] | 309 nM
O=c1c2cc(CN3CCN(c4ccncn4)CC3)ccc2c2cnc(NC3CCC3)nc2n1[C@H]1CC[C@H](O)CC1 [Compound 226, trans-3-(Cyclobutylamino)-5-(4-hydroxycyclohexyl)-8-((4-(pyrimidin-4-yl)piperazin-1-yl)methyl)pyrimido[4,5-c]isoquinolin-6(5H)-one] | 10.9 nM
O=c1c2cc(N3CCN(C4COC4)CC3)ccc2c2cnc(NCC3CC3)nc2n1[C@H]1CC[C@H](O)CC1 [Compound 178] | 380 nM
CN1CCN(Cc2ccc3c(c2)c(=O)n(C2CCC(C)(O)CC2)c2nc(NCC4CC4)ncc32)CC1 (stereo not drawn) [Compound 28, trans-3-((Cyclopropylmethyl)amino)-5-(4-hydroxy-4-methylcyclohexyl)-8-((4-methylpiperazin-1-yl)methyl)pyrimido[4,5-c]isoquinolin-6(5H)-one] | 36.6 nM
CCCCNc1ncc2c3ccc(CN4CCN(C)CC4)cc3c(=O)n([C@H]3CC[C@H](C(=O)NC)CC3)c2n1 [Compound 138, trans-4-(3-(Butylamino)-8-((4-methylpiperazin-1-yl)methyl)-6-oxopyrimido[4,5-c]isoquinolin-5(6H)-yl)-N-methylcyclohexane-1-carboxamide] | 68.8 nM
CN1CCN(Cc2ccc3c(c2)c(=O)n([C@H]2CC[C@H](C(N)=O)CC2)c2nc(NCC4CC4)ncc32)CC1 [Compound 134, trans-4-(3-((Cyclopropylmethyl)amino)-8-((4-methylpiperazin-1-yl)methyl)-6-oxopyrimido[4,5-c]isoquinolin-5(6H)-yl)cyclohexane-1-carboxamide] | 347 nM
CN1CCN(Cc2ccc3c(c2)c(=O)n([C@H]2CC[C@](C)(O)CC2)c2nc(NCC4CCC4)ncc32)CC1 [Compound 34, trans-3-((Cyclobutylmethyl)amino)-5-(4-hydroxy-4-methylcyclohexyl)-8-((4-methylpiperazin-1-yl)methyl)pyrimido[4,5-c]isoquinolin-6(5H)-one] | 7.4 nM
CN1CCN(c2ccc3c(c2)c(=O)n([C@H]2CC[C@H](O)CC2)c2nc(NC4CC(F)(F)C4)ncc32)CC1 [Compound 85, trans-3-((3,3-Difluorocyclobutyl)amino)-5-(4-hydroxycyclohexyl)-8-(4-methylpiperazin-1-yl)pyrimido[4,5-c]isoquinolin-6(5H)-one] | 221 nM
CCCCNc1ncc2c3ccc(N4CCN(C5COC5)CC4)cc3c(=O)n([C@H]3CC[C@H](O)CC3)c2n1 [Compound 77, trans-3-(Butylamino)-5-(4-hydroxycyclohexyl)-8-(4-(oxetan-3-yl)piperazin-1-yl)pyrimido[4,5-c]isoquinolin-6(5H)-one] | 21.9 nM
CN1CCN(Cc2ccc3c(c2)c(=O)n([C@H]2CC[C@H](O)CC2)c2nc(NC4CCC4)ncc32)CC1 [Compound 137, trans-3-(cyclobutylamino)-5-(4-hydroxycyclohexyl)-8-((4-methylpiperazin-1-yl)methyl)pyrimido[4,5-c]isoquinolin-6(5H)-one] | 19.6 nM
O=c1c2cc(N3CCn4ncnc4C3)ccc2c2cnc(NCC3CC3)nc2n1[C@H]1CC[C@H](O)CC1 [Compound 101, trans-3-((Cyclopropylmethyl)amino)-8-(5,6-dihydro-[1,2,4]triazolo[1,5-a]pyrazin-7(8H)-yl)-5-(4-hydroxycyclohexyl)pyrimido [4,5-c]isoquinolin-6(5H)-one] | 296 nM
CC(C)CNc1ncc2c3ccc(CN4CCN(C)CC4)cc3c(=O)n([C@H]3CC[C@H](O)CC3)c2n1 [Compound 56, trans-5-(4-Hydroxycyclohexyl)-3-(isobutylamino)-8-((4-methylpiperazin-1-yl)methyl)pyrimido[4,5-c]isoquinolin-6(5H)-one] | 51.2 nM
CN1CCN(Cc2ccc3c(c2)c(=O)n([C@H]2CC[C@H](OC(N)=O)CC2)c2nc(NCC4CC4)ncc32)CC1 [Compound 181] | 292 nM
O=c1c2cc(CN3CCSCC3)ccc2c2cnc(NCC3CC3)nc2n1[C@H]1CC[C@H](O)CC1 [Compound 53, trans-3-((Cyclopropylmethyl)amino)-5-(4-hydroxycyclohexyl)-8-(thiomorpholinomethyl)pyrimido [4,5-c]isoquinolin-6(5H)-one] | 36.3 nM
CCCCNc1ncc2c3ccc(CN4CCOCC4)cc3c(=O)n([C@H]3CC[C@H](O)CC3)c2n1 [Compound 2, trans-3-(Butylamino)-5-(4-hydroxycyclohexyl)-8-(morpholinomethyl)pyrimido [4,5-c]isoquinolin-6(5H)-one] | 44.2 nM
CC(C)(C)OC(=O)N1CCC(Cc2ccc3c(c2)c(=O)n([C@H]2CC[C@H](O)CC2)c2nc(NCC4CC4)ncc32)CC1 [Compound 206] | 1280 nM
C[C@]1(O)CC[C@H](n2c(=O)c3ccccc3c3cnc(NCCC4CC4)nc32)CC1 [Compound 122, trans-3-((2-Cyclopropylethyl)amino)-5-(4-hydroxy-4-methylcyclohexyl)pyrimido [4,5-c]isoquinolin-6(5H)-one] | 165 nM
CCCCNc1ncc2c3ccc(N4CCN(C)[C@H](C)C4)cc3c(=O)n([C@H]3CC[C@H](O)CC3)c2n1 [Compound 90, trans-3-(Butylamino)-8-((R)-3,4-dimethylpiperazin-1-yl)-5-(4-hydroxycyclohexyl)pyrimido [4,5-c]isoquinolin-6(5H)-one] | 13.1 nM
CN1CCN(c2ccc3c(c2)c(=O)n(C2CCC(C)(O)CC2)c2nc(NCC4CC4)ncc32)CC1 (stereo not drawn) [Compound 97, trans-3-((Cyclopropylmethyl)amino)-5-(4-hydroxy-4-methylcyclohexyl)-8-(4-methylpiperazin-1-yl)pyrimido[4,5-c]isoquinolin-6(5H)-one] | 69.1 nM
CC(C)(C)N1CCN(Cc2ccc3c(c2)c(=O)n([C@H]2CC[C@H](O)CC2)c2nc(NCC4CC4)ncc32)CC1 [Compound 182] | 7.6 nM
CCCCNc1ncc2c3ccc(N4CCN5CCC[C@@H]5C4)cc3c(=O)n([C@H]3CC[C@H](O)CC3)c2n1 [Compound 76, trans-3-(Butylamino)-8-((R)-hexahydropyrrolo[1,2-a]pyrazin-2(1H)-yl)-5-(4-hydroxycyclohexyl)pyrimido [4,5-c]isoquinolin-6(5H)-one] | 11.5 nM
CC(C)CCNc1ncc2c3ccc(CN4CCN(C)CC4)cc3c(=O)n([C@H]3CC[C@H](O)CC3)c2n1 [Compound 129] | 45.9 nM
CCCCNc1ncc2c3ccc(N4CC5(COC5)C4)cc3c(=O)n([C@H]3CC[C@H](O)CC3)c2n1 [Compound 68, trans-3-(Butylamino)-5-(4-hydroxycyclohexyl)-8-(2-oxa-6-azaspiro[3.3]heptan-6-yl)pyrimido[4,5-c]isoquinolin-6(5H)-one] | 78.4 nM
CN1CCN(c2ccc3c(c2)c(=O)n([C@H]2CC[C@H](O)CC2)c2nc(NCCCC(F)(F)F)ncc32)CC1 [Compound 95, trans-5-(4-Hydroxycyclohexyl)-8-(4-methylpiperazin-1-yl)-3-((4,4,4-trifluorobutyl)amino)pyrimido [4,5-c]isoquinolin-6(5H)-one] | 3920 nM
O=c1c2cc(N3CCN(CC(F)F)CC3)ccc2c2cnc(NCC3CC3)nc2n1[C@H]1CC[C@H](O)CC1 [Compound 169] | 354 nM
